Results from US11109593B2, “Isoxazolin-5-one derivative and herbicide containing same as active ingredient” (HOKKO CHEMICAL INDUSTRY CO., LTD., priority 2017, dated 2021).

Tests used:
Type in all cases: in vivo
[1] = system: Echinochloa crus-galli; assay: Test Example 1: herbicidal effect test by treatment of rice paddy soil (immediately after seeding)
Method: (§1) Herbicidal Effect Test by Treatment of Rice Paddy Soil
(§2) Wagner pots with an area of 1/10000 ares were filled with a paddy soil, and after adding water, a compound fertilizer (N:P:K=17:17:17) was added, followed by soil puddling. Then, Echinochloa crus-galli, broad leaf weeds (Lindernia pyxidaria and Monochoria vaginalis) and Scirpus juncoides, 30 seeds each, were sown in a depth of 0 to 1 cm. Water was poured immediately after seeding, and the water depth was kept at about 3 cm. The subsequent management was conducted in a glass greenhouse. Immediately after that, emulsions prepared using the compounds in Table 3 below according to Formulation Example 5 were diluted with water, and a certain amount of the water-diluted agent solutions were dropped. The converted amount of the applied active ingredient corresponded to 120 g per 10 ares.
(§3) This test was conducted in a double system per one agent solution concentration area, and the herbicidal rates (%) were determined by the following equation (Math. 1) on 14 days after the treatment with the agents. Herbicidal Rate (%)={1-(Average Dry Weight (g) of Plant of Treated Area)/(Average Dry Weight (g) of Plant of Untreated Area)}×100 [Math. 1]
(§4) The compound numbers in Table 3 are the same as those in Table 1 and Table 2 above.

[2] = system: Scirpus juncoides; assay: as above
Method: as §1, §2, §3, §4

[3] = system: broad leaf weeds (Lindernia pyxidaria and Monochoria vaginalis); assay: as above
Method: as §1, §2, §3, §4

[4] = system: Echinochloa crus-galli; assay: Test Example 2: herbicidal effect test by treatment during growing period in paddy rice cultivation (seven days after seeding); conditions: for Herbicidal rate (%) Echinochloa crus-galli: 120 g/10a active ingredient, assessed 14 days after treatment, dry weight vs untreated area; for herbicidal rate, Echinochloa crus-galli: 120 g/10a, rated 14 days after treatment, paddy soil pots
Method: as §3
(§5) Herbicidal Effect Test by Treatment During Growing Period in Paddy Rice Cultivation
as §2, with “was mixed,” for “was added,”, “greenhouse. Emulsions” for “greenhouse. Immediately after that, emulsions”, “Table 4” for “Table 3”, “with water seven days after seeding,” for “with water,”, “ares. The test was conducted in a double system per one agent solution concentration area, and the herbicidal rates (%) were determined by the equation (Math. 1) on 14 days after the treatment with the agents. […] The compound numbers in Table 4 are the same as those in Table 1 and Table 2 above.” for “ares.”

[5] = system: Scirpus juncoides; assay: as above; conditions: for Herbicidal rate (%) Scirpus juncoides: 120 g/10a active ingredient, assessed 14 days after treatment, dry weight vs untreated area; for herbicidal rate, Scirpus juncoides: 120 g/10a, rated 14 days after treatment, paddy soil pots
Method: as §3, §5
as §2, with “was mixed,” for “was added,”, “greenhouse. Emulsions” for “greenhouse. Immediately after that, emulsions”, “Table 4” for “Table 3”, “with water seven days after seeding,” for “with water,”, “ares. The test was conducted in a double system per one agent solution concentration area, and the herbicidal rates (%) were determined by the equation (Math. 1) on 14 days after the treatment with the agents. […] The compound numbers in Table 4 are the same as those in Table 1 and Table 2 above.” for “ares.”

[6] = system: broad leaf weeds (Lindernia pyxidaria and Monochoria vaginalis); assay: as above; conditions: for Herbicidal rate (%) Lindernia pyxidaria / Herbicidal rate (%) Monochoria vaginalis: 120 g/10a active ingredient, assessed 14 days after treatment, dry weight vs untreated area; for herbicidal rate, Lindernia pyxidaria / herbicidal rate, Monochoria vaginalis: 120 g/10a, rated 14 days after treatment, paddy soil pots
Method: as §3, §5
as §2, with “was mixed,” for “was added,”, “greenhouse. Emulsions” for “greenhouse. Immediately after that, emulsions”, “Table 4” for “Table 3”, “with water seven days after seeding,” for “with water,”, “ares. The test was conducted in a double system per one agent solution concentration area, and the herbicidal rates (%) were determined by the equation (Math. 1) on 14 days after the treatment with the agents. […] The compound numbers in Table 4 are the same as those in Table 1 and Table 2 above.” for “ares.”

[7] = 120 g/10a active ingredient, dry weight vs untreated area, 14 days after treatment
[8] = Lindernia pyxidaria, 120 g/10a active ingredient, dry weight vs untreated area, 14 days after treatment
[9] = Monochoria vaginalis, 120 g/10a active ingredient, dry weight vs untreated area, 14 days after treatment
[10] = 120 g/10a active ingredient, 14 days after treatment, dry weight vs untreated area
[11] = Lindernia pyxidaria, 120 g/10a active ingredient, 14 days after treatment, dry weight vs untreated area
[12] = Monochoria vaginalis, 120 g/10a active ingredient, 14 days after treatment, dry weight vs untreated area

| SMILES | Herbicidal rate (%) Echinochloa crus-galli [1, 7] | Herbicidal rate (%) Scirpus juncoides [2, 7] | Herbicidal rate (%) Lindernia pyxidaria [3, 8] | Herbicidal rate (%) Monochoria vaginalis [3, 9] | Herbicidal rate (%) Echinochloa crus-galli [4] | Herbicidal rate (%) Scirpus juncoides [5] | Herbicidal rate (%) Lindernia pyxidaria [6] | Herbicidal rate (%) Monochoria vaginalis [6] | Herbicidal rate (%) Echinochloa crus-galli [1, 10] | Herbicidal rate (%) Scirpus juncoides [2, 10] | Herbicidal rate (%) Lindernia pyxidaria [3, 11] | Herbicidal rate (%) Monochoria vaginalis [3, 12] | herbicidal rate, Echinochloa crus-galli [4] | herbicidal rate, Scirpus juncoides [5] | herbicidal rate, Lindernia pyxidaria [6] | herbicidal rate, Monochoria vaginalis [6] |
| --- | --- | --- | --- | --- | --- | --- | --- | --- | --- | --- | --- | --- | --- | --- | --- | --- |
| CC(C)c1c(Cc2ccccc2NS(=O)(=O)C(F)(F)F)c(=O)on1C(C)C [Compound 1-68] | 80% | 90% | 90% | 80% | 40% | 80% | 70% | 80% | – | – | – | – | – | – | – | – |
| Cc1c(Cc2ccccc2NS(=O)(=O)C(F)(F)F)c(=O)on1CCOC(C)C [Compound 1-155] | 90% | 80% | 60% | 60% | 100% | 80% | 60% | 60% | – | – | – | – | – | – | – | – |
| Cc1c(Cc2ccccc2N(S(=O)(=O)C(F)(F)F)S(=O)(=O)C(F)(F)F)c(=O)on1Cc1cccs1 [Compound 1-1054] | – | – | – | – | – | – | – | – | 90% | 90% | 100% | 100% | 90% | 90% | 100% | 100% |
| C=CCn1oc(=O)c(Cc2ccccc2NS(=O)(=O)C(F)(F)F)c1C [Compound 1-135] | 90% | 90% | 90% | 60% | 80% | 90% | 40% | 60% | – | – | – | – | – | – | – | – |
| CC(C)n1oc(=O)c(Cc2ccccc2N(S(=O)(=O)C(F)(F)F)S(=O)(=O)C(F)(F)F)c1C1CC1 [Compound 1-84] | 80% | 80% | 70% | 70% | 40% | 70% | 40% | 40% | – | – | – | – | – | – | – | – |
| Cc1c(Cc2ccccc2N(S(=O)(=O)C(F)(F)F)S(=O)(=O)C(F)(F)F)c(=O)on1Cc1ccccc1F [Compound 1-1012] | 90% | 100% | 100% | 100% | 60% | 90% | 80% | 80% | – | – | – | – | – | – | – | – |
| Cc1c(Cc2ccccc2N(S(=O)(=O)C(F)(F)F)S(=O)(=O)C(F)(F)F)c(=O)on1CCc1ccccc1 [Compound 1-1043] | 100% | 90% | 100% | 100% | 90% | 90% | 100% | 100% | – | – | – | – | – | – | – | – |
| Cc1c(Cc2ccccc2N(S(=O)(=O)C(F)(F)F)S(=O)(=O)C(F)(F)F)c(=O)on1Cc1cccc(C(F)(F)F)c1 [Compound 1-1020] | 50% | 40% | 80% | 40% | 60% | 40% | 40% | 40% | – | – | – | – | – | – | – | – |
| Cc1c(Cc2ccccc2N(S(=O)(=O)C(F)(F)F)S(=O)(=O)C(F)(F)F)c(=O)on1C(C)c1ccccc1Cl (stereo not shown) [Compound 1-1032] | 80% | 90% | 90% | 90% | 40% | 40% | 40% | 40% | – | – | – | – | – | – | – | – |
| Cc1c(Cc2ccccc2N(S(=O)(=O)C(F)(F)F)S(=O)(=O)C(F)(F)F)c(=O)on1C(C)c1ccsc1 (stereo not shown) [Compound 1-1057] | – | – | – | – | – | – | – | – | 90% | 90% | 80% | 80% | 80% | 80% | 60% | 80% |
| Cc1c(Cc2ccccc2NS(=O)(=O)C(F)(F)F)c(=O)on1Cc1ccc(F)c(Cl)c1 [Compound 1-202] | 100% | 80% | 100% | 90% | 40% | 40% | 60% | 60% | – | – | – | – | – | – | – | – |
| Cc1c(Cc2ccccc2N(S(=O)(=O)C(F)(F)F)S(=O)(=O)C(F)(F)F)c(=O)on1CC1CCCCC1 [Compound 1-994] | 90% | 90% | 100% | 60% | 90% | 80% | 60% | 80% | – | – | – | – | – | – | – | – |
| Cc1c(Cc2ccccc2N(S(=O)(=O)C(F)(F)F)S(=O)(=O)C(F)(F)F)c(=O)on1Cc1ccc(Cl)cc1 [Compound 1-1015] | 90% | 90% | 100% | 90% | 70% | 90% | 90% | 90% | – | – | – | – | – | – | – | – |
| Cc1c(Cc2ccccc2N(S(=O)(=O)C(F)(F)F)S(=O)(=O)C(F)(F)F)c(=O)on1C(C)c1ccc(Cl)cc1 (stereo not shown) [Compound 1-1034] | 100% | 90% | 100% | 100% | 90% | 90% | 80% | 80% | – | – | – | – | – | – | – | – |
| Cc1c(Cc2c(Cl)cccc2NS(=O)(=O)C(F)(F)F)c(=O)on1C(C)C [Compound 1-46] | 60% | 90% | 80% | 80% | 40% | 60% | 40% | 40% | – | – | – | – | – | – | – | – |
| CC(C)c1c(Cc2ccccc2N(S(=O)(=O)C(F)(F)F)S(=O)(=O)C(F)(F)F)c(=O)on1C(C)C [Compound 1-69] | 80% | 90% | 70% | 70% | 60% | 60% | 40% | 60% | – | – | – | – | – | – | – | – |
| Cc1c(Cc2ccccc2NS(=O)(=O)C(F)(F)F)c(=O)on1Cc1ccsc1 [Compound 1-232] | 90% | 90% | 80% | 90% | 70% | 60% | 40% | 40% | – | – | – | – | – | – | – | – |
